Data taken from patent US11058700B2, “Macrocyclic lactones and uses thereof as modulators of purinergic receptors” (City of Hope, priority 2015, dated 2021).

Assays:
[1] = system: Calreticulin (CRT) and Mannose-6 Phosphate receptor; experiment: Surface exposure of CRT and Mannose-6 Phosphate receptor; format: cell-based, mouse, human
Experimental: FIGS. 6A-6E. Ivermectin induces autophagy. FIG. 6A: Ivermectin induces autophagy in breast cancer cells. MDA-MB-231 GFL-LC3 cells were treated with different doses of Ivermectin for 24 h and formation of green fluorescent puncta was evaluated by confocal fluorescence microscopy. FIG. 6B: Western blot confirming the induction of autophagy in both murine and human breast cancer cells, as evidenced by LC3 lipidation and autophagic degradation of p62(SQSTM1). […] MDA-MB-231 cells (triplicates) were treated with different doses of Ivermectin for up to 24h and surface stained with antibody-specific for the human M6P receptor versus isotype control. Similarly, 4T1.2 and MB231 cells were treated with different doses of Ivermectin for 4-24 h, and were stained with an antibody specific for both human and mouse CRT versus isotype control. Mean fluorescent intensity (MFI) values and ratios versus isotype control were calculated after gating on live/membrane-intact cells. […]
Surface exposure of CRT and Mannose-6 Phosphate receptor. Surface exposure of Calreticulin (CRT) and Mannose-6 Phosphate receptor (CD220) was evaluated by staining with monoclonal antibodies specific for CRT (unconjugated, specific for both mouse and human, Abcam ab22683, and PE-conjugated, specific for human only, Abcam, ab83220) and CD220 (Thermo […]

TNBC cells = experiment: Extracellular ATP release; format: cell-based, mouse, human
Experimental: FIGS. 3A-3G. Dual roles of ATP and purinergic signaling in Ivermectin's killing. FIG. 3A: Depletion of extracellular ATP with Apyrase (2500 μunits/ml) exacerbates killing of 4T1.2 cell by Ivermectin. FIG. 3B: Extracellular Ca^2− and ATP contain Ivermectin-induced cell swelling. 4T1.2 cells were treated with 32 μM Ivermectin for 4 h in the presence of 1 mM EDTA or 2500 μunits/ml Apyrase. FIG. 3C: Ivermectin (0.5-32 μM) and high concentrations of extracellular ATP (0.3-3 mM) synergistically open pannexin-1 channels and permeabilize the membrane on live cells (7AAD-positive dead cells were gated out). 4T1.2 cells were treated for 30 min as indicated in the presence of 7 AAD and 5 μM YOPRO-1. FIG. 3D: Analysis of supernatants from Ivermectin-treated murine and human TNBC cells showing rapid release of ATP followed by its transient depletion. Depletion of extracellular ATP with Apyrase (2500 μunits/ml) was used as a positive control. […]
Extracellular ATP release. […] The cancer cells engineered to stably express the membrane-bound Luciferase were treated with Ivermectin for 30 min-4 h and luminescence was measured in the presence of 2 μM Luciferin. ATP concentration in Ivermectin treated supernatants was measured using ATP determination kit (Life Technologies, A22066) following manufacturers' instructions.

[2] = system: 4T1.2 breast cancer cells; experiment: Flow cytometry of mode of cell death (Annexin V / 7AAD); format: cell-based, mouse; conditions: Ivermectin-treated breast cancer cells
Experimental: FIGS. 1A-1H. Ivermectin kills breast cancer cells through a mixed apoptotic and necrotic mechanism. FIG. 1A: Mouse (4T1.2) and human (MDA-MB-231) TNBC cells manifest similar sensitivity to Ivermectin. Viability of cells treated with various doses of Ivermectin for 24 h. FIG. 1B: Extended exposure time reduces IC50 values to as low as 2 μM. 4T1.2 cells were seeded at 100 cells/well and individual colonies were counted after a week. Cancer cells were exposed to Ivermectin during the initial 24 h or during the entire duration of the assay. FIG. 1C: MDA-MB-231 breast cancer cells manifest higher sensitivity to Ivermectin compared to normal non-transformed human foreskin fibroblasts (HFFs). FIG. 1D: Flow cytometry analysis showing that cell death proceeds through two distinct pathways: a directly necrotic 7AAD-single positive or Annexin V/PS-single positive apoptotic pathway. FIG. 1E: Kinetics of necrotic versus apoptotic killing of 4T1.2 breast cancer cells. FIG. 1F: Ivermectin-induced cell death can be reversed by inhibition of various controlled cell death pathways. […]
Cell viability. […] Following treatment the plates were washed once with PBS and cell viability was measured using the acid phosphatase assay. […] Absorption at 405 nm was measured within 10 min using a multi-well plate reader. Mode of cell death and viability of cells in suspension was evaluated using flow cytometry. […]

breast cancer cells = experiment: Induction of autophagy (GFP-LC3 puncta, Western blot LC3 / p62); format: cell-based, mouse, human
Experimental: FIGS. 6A-6E. Ivermectin induces autophagy. FIG. 6A: Ivermectin induces autophagy in breast cancer cells. MDA-MB-231 GFL-LC3 cells were treated with different doses of Ivermectin for 24 h and formation of green fluorescent puncta was evaluated by confocal fluorescence microscopy. FIG. 6B: Western blot confirming the induction of autophagy in both murine and human breast cancer cells, as evidenced by LC3 lipidation and autophagic degradation of p62(SQSTM1). […] MDA-MB-231 cells (triplicates) were treated with different doses of Ivermectin for up to 24h and surface stained with antibody-specific for the human M6P receptor versus isotype control. Similarly, 4T1.2 and MB231 cells were treated with different doses of Ivermectin for 4-24 h, and were stained with an antibody specific for both human and mouse CRT versus isotype control. Mean fluorescent intensity (MFI) values and ratios versus isotype control were calculated after gating on live/membrane-intact cells. FIG. 6D: Ivermectin (32 μM) induces release of HMGB1 from murine and human TNBC cells (triplicates). […] Asterisk (*) indicates p<0.05 relative to untreated or Ivermectin alone controls, respectively.
Western Blotting. […] Activation and cleavage of caspases was evaluated using antibodies specific for caspase-1 (NOVUS, NBP1-45433) and caspase-3 (Cell Signaling, 9665). […]

## CC[C@H](C)[C@H]1O[C@]2(CC[C@@H]1C)C[C@@H]1C[C@@H](C/C=C(\C)[C@@H](O[C@H]3C[C@H](OC)[C@@H](O[C@H]4C[C@H](OC)[C@@H](O)[C@H](C)O4)[C@H](C)O3)[C@@H](C)/C=C/C=C3\CO[C@@H]4[C@H](O)C(C)=C[C@@H](C(=O)O1)[C@]34O)O2 [Ivermectin]
[1]; 4T1.2 and MB231 cells, 4-24 h
  surface exposure of Calreticulin (CRT): does not significantly impact surface CRT
[1]; MDA-MB-231 cells, up to 24 h
  plasma membrane exposure of M6P receptors: up-regulate plasma membrane exposure of mannose-6-phosphate (M6P) receptors
TNBC cells
  extracellular ATP levels in supernatants: immediate increase in extracellular ATP levels
[2]
  dying cancer cells directly necrotic (7AAD-positive): More than 90%
Breast cancer cells
  induction of autophagy: potent inducer of autophagy
